According to publication PMC11418212, “Characterization of four structurally diverse inhibitors of SUR2-containing KATP channels” (Channels, 2024):
Several values for one entry are separate records, joined by “and”; a condition that tells them apart may be missing. Equal entries are not always repeated. Where two headings read alike, the source gives them in different places.

Tests used:
Format in all cases: cell-based
Kir6.1/SUR2B = molecular target: T1, Kir6.1/SUR2B (Homo sapiens, UniProt O60706); test: Quantitative thallium flux assay, inhibition, stably transfected T-REx-HEK293 cells
T1 construct: expressed in transfected cells; Kir6.1 tetracycline-inducible, SUR2B constitutive

Kir4.1/5.1 = molecular target: T2, Kir4.1/5.1 (Homo sapiens, UniProt P78508+Q9NPI9); test: Kir family selectivity thallium flux assay
T2 construct: expressed in transfected cells
T2 sequence (P78508 1-379): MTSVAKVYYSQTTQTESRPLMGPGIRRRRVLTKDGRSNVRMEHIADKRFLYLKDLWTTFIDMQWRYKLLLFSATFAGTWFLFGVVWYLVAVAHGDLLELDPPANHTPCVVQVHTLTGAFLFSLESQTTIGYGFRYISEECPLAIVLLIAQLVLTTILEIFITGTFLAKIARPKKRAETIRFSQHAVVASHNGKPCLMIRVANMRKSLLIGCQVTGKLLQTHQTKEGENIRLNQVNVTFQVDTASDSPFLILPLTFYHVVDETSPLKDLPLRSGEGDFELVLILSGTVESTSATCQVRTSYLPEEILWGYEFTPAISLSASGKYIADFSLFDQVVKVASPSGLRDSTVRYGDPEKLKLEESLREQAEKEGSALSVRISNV
T2 sequence (Q9NPI9 1-418): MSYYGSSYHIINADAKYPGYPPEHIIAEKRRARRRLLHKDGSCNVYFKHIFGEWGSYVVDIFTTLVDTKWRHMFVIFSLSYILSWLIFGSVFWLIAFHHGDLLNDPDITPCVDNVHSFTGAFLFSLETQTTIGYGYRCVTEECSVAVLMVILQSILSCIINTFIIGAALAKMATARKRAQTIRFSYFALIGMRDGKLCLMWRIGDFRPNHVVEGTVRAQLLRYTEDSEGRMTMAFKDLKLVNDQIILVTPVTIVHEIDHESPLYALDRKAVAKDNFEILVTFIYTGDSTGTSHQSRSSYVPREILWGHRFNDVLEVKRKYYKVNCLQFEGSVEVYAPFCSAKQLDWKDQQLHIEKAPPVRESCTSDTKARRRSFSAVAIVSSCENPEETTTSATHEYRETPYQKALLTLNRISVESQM

Kir3.1/3.2 = molecular target: T3, Kir3.1/3.2 (Homo sapiens, UniProt P48051+P48549); test: Kir family selectivity thallium flux assay
T3 construct: expressed in transfected cells
T3 sequence (P48549 1-501): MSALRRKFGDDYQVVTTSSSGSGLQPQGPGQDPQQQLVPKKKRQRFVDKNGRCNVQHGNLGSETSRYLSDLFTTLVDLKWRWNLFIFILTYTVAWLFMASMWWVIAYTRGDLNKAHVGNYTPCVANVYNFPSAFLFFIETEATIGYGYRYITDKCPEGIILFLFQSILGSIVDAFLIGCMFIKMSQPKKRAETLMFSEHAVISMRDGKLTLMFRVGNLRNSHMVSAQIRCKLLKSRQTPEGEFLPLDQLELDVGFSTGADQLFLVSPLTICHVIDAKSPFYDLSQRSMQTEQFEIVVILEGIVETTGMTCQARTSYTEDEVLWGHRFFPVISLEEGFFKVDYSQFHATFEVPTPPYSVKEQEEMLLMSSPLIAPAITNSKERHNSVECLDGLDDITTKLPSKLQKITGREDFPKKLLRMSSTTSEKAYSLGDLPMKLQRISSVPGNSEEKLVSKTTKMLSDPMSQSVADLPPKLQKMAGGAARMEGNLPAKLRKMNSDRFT
T3 sequence (P48051 1-423): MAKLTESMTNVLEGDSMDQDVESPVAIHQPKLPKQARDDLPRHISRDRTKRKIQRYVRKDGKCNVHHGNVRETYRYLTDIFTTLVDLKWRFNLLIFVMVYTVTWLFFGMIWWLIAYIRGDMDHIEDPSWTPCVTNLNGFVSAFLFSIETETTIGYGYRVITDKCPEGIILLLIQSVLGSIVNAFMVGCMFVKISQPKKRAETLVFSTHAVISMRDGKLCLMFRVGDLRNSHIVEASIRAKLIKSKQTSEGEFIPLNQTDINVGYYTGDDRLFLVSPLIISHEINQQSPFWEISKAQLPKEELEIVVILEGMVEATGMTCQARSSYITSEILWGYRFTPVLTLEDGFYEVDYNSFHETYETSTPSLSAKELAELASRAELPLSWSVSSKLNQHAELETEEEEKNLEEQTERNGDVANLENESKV

[1] = ATP depletion with sodium cyanide and 2-deoxy-glucose, read-out: IC50 Kir6.1/SUR2B, ATP depletion
[2] = channels activated with 10 µM pinacidil, read-out: IC50 Kir6.1/SUR2B, pinacidil activation

T1 sequence (O60706 1-1549 isoform O60706-2, species assumed): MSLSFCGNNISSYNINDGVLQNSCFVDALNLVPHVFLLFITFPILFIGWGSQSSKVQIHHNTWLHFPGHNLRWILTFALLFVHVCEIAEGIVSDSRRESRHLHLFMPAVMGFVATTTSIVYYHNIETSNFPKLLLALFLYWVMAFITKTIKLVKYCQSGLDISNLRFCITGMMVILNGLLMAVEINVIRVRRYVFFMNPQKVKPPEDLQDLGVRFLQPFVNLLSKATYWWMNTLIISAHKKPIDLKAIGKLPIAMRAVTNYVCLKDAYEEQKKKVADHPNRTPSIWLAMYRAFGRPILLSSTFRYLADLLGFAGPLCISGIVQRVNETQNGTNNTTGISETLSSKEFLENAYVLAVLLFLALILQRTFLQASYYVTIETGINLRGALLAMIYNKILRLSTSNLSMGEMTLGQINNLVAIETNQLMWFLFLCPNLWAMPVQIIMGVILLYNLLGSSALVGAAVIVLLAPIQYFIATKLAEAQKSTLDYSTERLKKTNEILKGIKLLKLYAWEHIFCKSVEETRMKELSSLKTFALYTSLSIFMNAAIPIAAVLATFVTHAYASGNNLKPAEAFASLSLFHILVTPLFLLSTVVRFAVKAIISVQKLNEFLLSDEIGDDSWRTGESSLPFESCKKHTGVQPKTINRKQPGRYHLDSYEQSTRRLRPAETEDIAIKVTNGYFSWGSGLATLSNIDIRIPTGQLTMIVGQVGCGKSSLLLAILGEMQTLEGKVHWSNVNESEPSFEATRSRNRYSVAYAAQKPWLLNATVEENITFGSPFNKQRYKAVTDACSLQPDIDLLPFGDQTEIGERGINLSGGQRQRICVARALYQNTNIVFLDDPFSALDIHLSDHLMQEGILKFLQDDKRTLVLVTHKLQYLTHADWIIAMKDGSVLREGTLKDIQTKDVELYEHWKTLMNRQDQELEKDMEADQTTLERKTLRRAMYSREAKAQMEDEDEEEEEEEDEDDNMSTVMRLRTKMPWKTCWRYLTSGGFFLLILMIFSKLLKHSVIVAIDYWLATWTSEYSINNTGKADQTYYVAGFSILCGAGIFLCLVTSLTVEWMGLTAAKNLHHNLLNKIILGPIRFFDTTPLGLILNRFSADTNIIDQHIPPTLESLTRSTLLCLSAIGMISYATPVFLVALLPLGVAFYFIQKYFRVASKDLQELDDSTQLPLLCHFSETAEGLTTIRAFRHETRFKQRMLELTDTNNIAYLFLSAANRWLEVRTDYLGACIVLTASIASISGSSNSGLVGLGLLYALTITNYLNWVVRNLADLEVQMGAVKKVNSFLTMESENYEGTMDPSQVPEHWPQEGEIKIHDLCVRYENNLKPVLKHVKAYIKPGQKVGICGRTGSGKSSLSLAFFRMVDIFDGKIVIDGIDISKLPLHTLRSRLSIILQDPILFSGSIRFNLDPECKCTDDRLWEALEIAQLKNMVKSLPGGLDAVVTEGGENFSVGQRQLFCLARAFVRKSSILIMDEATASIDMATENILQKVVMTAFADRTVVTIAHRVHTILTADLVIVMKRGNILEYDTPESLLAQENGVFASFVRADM
T1 sequence (Q15842 whole entry partner, species assumed): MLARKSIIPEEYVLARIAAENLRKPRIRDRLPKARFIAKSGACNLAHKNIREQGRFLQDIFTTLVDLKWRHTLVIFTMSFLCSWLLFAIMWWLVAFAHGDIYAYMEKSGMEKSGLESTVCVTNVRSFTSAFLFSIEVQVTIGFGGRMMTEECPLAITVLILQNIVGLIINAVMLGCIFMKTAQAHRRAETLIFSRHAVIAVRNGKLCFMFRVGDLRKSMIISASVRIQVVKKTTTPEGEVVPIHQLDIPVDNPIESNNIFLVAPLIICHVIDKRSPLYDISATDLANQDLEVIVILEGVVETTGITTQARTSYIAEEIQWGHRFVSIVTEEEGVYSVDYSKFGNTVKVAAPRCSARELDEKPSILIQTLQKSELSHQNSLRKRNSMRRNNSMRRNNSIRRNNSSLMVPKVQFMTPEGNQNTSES

| SMILES | IC50 (Kir6.1/SUR2B; [1]) | IC50 (Kir6.1/SUR2B; [2]) | IC50 (Kir4.1/5.1) | IC50 (Kir3.1/3.2) |
| --- | --- | --- | --- | --- |
| O=C(NCc1cc(-c2ccncc2)n(C2CCCC2)n1)Nc1cccs1 [VU0544086, 1-((1-cyclopentyl-5-(pyridin-4-yl)-1 H-pyrazol-3-yl)methyl)-3-(thiophen-2-yl)urea] | 1000 nM | 1000 nM | > 30000 nM | > 30000 nM |
| O=C(NCC(O)(c1ccccc1)C(F)(F)F)c1ccc(OC(F)(F)F)cc1 (stereo not shown) [VU0543336, N-(3,3,3-trifluoro-2-hydroxy-2-phenylpropyl)-4-(trifluoromethoxy)benzamide] | 126 nM and 100 nM | 271 nM and 300 nM | > 30000 nM | > 30000 nM |
| O=C1c2oc3ccccc3c(=O)c2C(c2cccc(Br)c2)N1CCO (stereo not shown) [VU0605768, 1-(3-bromophenyl)-2-(2-hydroxyethyl)-1,2-dihydrochromeno[2,3-c]pyrrole-3,9-dione] | 779 nM | 479 nM | > 30000 nM | > 30000 nM |
| c1ccc2[nH]c(CSc3ncnc4c3oc3ccccc34)nc2c1 [VU0212387, 4-(((1 H-benzo[d]imidazol-2-yl)methyl)thio)benzofuro[3,2-d]pyrimidine] | 619 nM and 600 nM | 1400 nM | > 30000 nM | > 30000 nM |
